Tests used:
CREBBP = biological target: T1, CREBBP (Homo sapiens, UniProt Q92793); assay: AlphaScreen in-vitro binding assay for CREBBP; conditions: Biochemical IC50 values, His-CREBBP(1081-1197)
T1 construct: 324 nM His-CREBBP(1081-1197) (custom production at Viva Biotech Ltd.)
Description: AlphaScreen In-Vitro Binding Assay for CREBBP
In order to assess bromodomain selectivity, we set up a binding assay using the bromodomain encoded by the CREBBP gene. […] Reactions were incubated at 30° C. for 35 minutes. Subsequently 4.5 μL per well detection mix (50 mM HEPES, pH 7.5, 0.005% Tween20, 0.02% BSA, 150 mM NaCl, 45 μg/ml Ni-chelate acceptor beads, 45 μg/mL streptavidin-donor beads) (Perkin Elmer)) were added. After 60 minutes incubation at room temperature, plates were measured in a Perkin Elmer EnVision multilabel reader. IC50 values were determined from percent inhibition values at different compound concentrations by non-linear regression analysis.
(§1) Preparation of Compound Dilutions
Test compounds were dissolved in DMSO (10 mM) and transferred into 1.4 mL flat bottom or V-shaped Matrix tubes carrying a unique 2D matrix. The stock solutions were stored at […] if not used immediately. For the test procedure the vials were defrosted and identified by a scanner whereby a working sheet was generated that guided the subsequent working steps. Compound dilutions were made in 96 well plates. This format enabled the assay of maximally 40 individual test compounds at 8 concentrations (single points) including 4 reference compounds, if desired (known BET inhibitors from the prior art, for this and other assays of the type disclosed herein). […]

BRD2 = biological target: T2, BRD2 (Homo sapiens, UniProt P25440); assay: TR-FRET in-vitro binding assay for BRD2; conditions: Biochemical IC50 values, His-Brd2(60-472)
T2 construct: 45 nM His-Brd2(60-472) or 45 nM His-Brd3(20-477)
Description: (§2) TR-FRET In-Vitro Binding Assays for BRD2, BRD3, and BRD4:
(§3) All assays were performed in 384-well microtiter plates. Each assay plate contained 8-point serial dilutions for 40 test compounds, plus 16 high- and 16 low controls. Liquid handling and incubation steps were done on an Innovadyne Nanodrop Express equipped with a robotic arm (Thermo CatX, Perkin Elmer/Caliper Twister II) and an incubator (Liconic STX40, Thermo Cytomat 2C450). The assay plates were prepared by addition of 50n1 per well of compound solution in 90% DMSO HummingBird nanodispenser (Zinsser Analytic). […] Reactions were incubated at 30° C. for 35 minutes. […] After 35 minutes incubation at 30° C., plates were measured in a Perkin Elmer EnVision multilabel reader.
as §1
(§4) Test compounds were dissolved in DMSO (10 mM) and transferred into 1.4 mL flat bottom or V-shaped Matrix tubes carrying a unique 2D matrix. The stock solutions were stored at […] if not used immediately. For the test procedure the vials were defrosted and identified by a scanner whereby a working sheet was generated that guided the subsequent working steps. Compound dilutions were made in 96 well plates. This format enabled the assay of maximally 40 individual test compounds at 8 concentrations (single points) including 4 reference compounds, if desired (known BET inhibitors from the prior art, for this and other assays of the type disclosed herein). The dilution protocol included the production of “pre-dilution plates”, “master plates” and “assay plates”.
(§5) Polypropylene 96-well plates were used as pre-dilution plates. […] All dilution steps were done on a HamiltonSTAR robot.
(§6) These plates were used directly for the assay which was performed in a total volume of 13.55 μL.

BRD3 = biological target: T3, BRD3 (Homo sapiens, UniProt Q15059); assay: TR-FRET in-vitro binding assay for BRD3; conditions: Biochemical IC50 values, His-Brd3(20-477)
T3 construct: 45 nM His-Brd3(20-477) or 45 nM His-Brd4(44-477)
Description: as §2, §3, §1, §4, §5, §6

BRD4 = biological target: T4, BRD4 (Homo sapiens, UniProt O60885); assay: TR-FRET in-vitro binding assay for BRD4; conditions: Biochemical IC50 values, His-Brd4(44-477)
T4 construct: 45 nM His-Brd4(44-477) all proteins produced in-house
Description: as §2, §3, §1, §4, §5, §6

K-562 cells = assay: Cell growth inhibition assay (CellTiter-Glo), K-562; type: cell-based, human; conditions: for GI50: Homo sapiens, K562
Procedure, shortened: (§7)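 Cellular ATP (CellTiter-Glo luminescence) measured after 4 days at 37° C., 5% CO2 of compound exposure, top concentration 10 μM in 3-fold steps, 0.1% DMSO. Readings corrected for no-cell background and a day-0 plate, normalised to vehicle and medium wells; half-maximal and total growth inhibition from four-parameter curves.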

THP-1 cells = assay: Cell growth inhibition assay (CellTiter-Glo), THP-1; type: cell-based; conditions: Homo sapiens
Procedure, shortened: as §7

MV-4-11 cells = assay: Cell growth inhibition assay (CellTiter-Glo), MV-4-11; type: cell-based; conditions: Homo sapiens, MV4-11
Procedure, shortened: as §7

T2 sequence (P25440 60-472): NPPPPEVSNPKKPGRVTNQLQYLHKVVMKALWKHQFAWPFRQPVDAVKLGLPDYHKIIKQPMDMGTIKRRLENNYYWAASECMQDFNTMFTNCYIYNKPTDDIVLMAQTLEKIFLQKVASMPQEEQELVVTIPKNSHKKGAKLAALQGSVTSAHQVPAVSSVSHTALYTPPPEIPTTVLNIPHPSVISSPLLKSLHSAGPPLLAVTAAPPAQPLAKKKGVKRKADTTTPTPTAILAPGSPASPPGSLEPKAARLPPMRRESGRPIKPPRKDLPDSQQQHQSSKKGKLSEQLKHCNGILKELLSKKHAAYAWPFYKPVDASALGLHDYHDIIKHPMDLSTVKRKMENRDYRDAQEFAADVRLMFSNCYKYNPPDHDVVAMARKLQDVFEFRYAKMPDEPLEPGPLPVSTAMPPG
T3 sequence (Q15059 20-477): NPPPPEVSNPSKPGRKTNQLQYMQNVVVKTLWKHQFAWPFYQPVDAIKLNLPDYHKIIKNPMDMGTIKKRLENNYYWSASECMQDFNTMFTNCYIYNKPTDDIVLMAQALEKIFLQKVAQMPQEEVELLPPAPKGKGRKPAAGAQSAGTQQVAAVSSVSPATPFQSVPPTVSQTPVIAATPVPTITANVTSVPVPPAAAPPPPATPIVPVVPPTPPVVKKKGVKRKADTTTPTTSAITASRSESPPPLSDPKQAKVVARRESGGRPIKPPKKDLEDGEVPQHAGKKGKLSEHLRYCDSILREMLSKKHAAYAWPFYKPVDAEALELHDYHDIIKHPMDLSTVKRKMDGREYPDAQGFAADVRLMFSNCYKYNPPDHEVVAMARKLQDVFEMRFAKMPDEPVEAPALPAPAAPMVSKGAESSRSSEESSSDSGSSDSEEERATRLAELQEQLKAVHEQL
T1 sequence (Q92793 1081-1197): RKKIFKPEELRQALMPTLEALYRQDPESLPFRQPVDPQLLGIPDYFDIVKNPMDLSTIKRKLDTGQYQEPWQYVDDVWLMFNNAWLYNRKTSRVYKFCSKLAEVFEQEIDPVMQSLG

Row | IC50 (CREBBP) | IC50 (BRD2) | IC50 (BRD3) | IC50 (BRD4) | GI50 (K-562 cells) | GI50 (THP-1 cells) | GI50 (MV-4-11 cells) | SMILES | IC (TGI) (K-562 cells)
1 | 3.9 µM | 0.099 µM | 0.074 µM | – | – | – | – | Cc1nn(C2CC2)c2c1C(c1ccc(Cl)cc1)N(c1cc(C)c(=O)n(C)c1)C2=O (racemic) [Example 23, 4-(4-chlorophenyl)-1-cyclopropyl-5-(1,5-dimethyl-6-oxo-1,6-dihydropyridin-3-yl)-3-methyl-4,5-dihydropyrrolo-[3,4-c]pyrazol-6(1H)-one] | –
2 | – | > 6.7 µM | – | > 6.7 µM | – | – | – | Cc1cc(N2C(=O)c3nn(C)cc3[C@@H]2c2ccc(Cl)cc2)cn(C)c1=O [Example 15, (S)-4-(4-chlorophenyl)-5-(1,5-dimethyl-6-oxo-1,6-dihydropyridin-3-yl)-2-methyl-4,5-dihydropyrrolo[3,4-c]pyrazol-6(2H)-one] | –
3 | – | – | > 6.7 µM | > 6.7 µM | – | – | – | Cc1cc(N2C(=O)c3nn(C4CC4)c(C)c3[C@@H]2c2ccc(Cl)cc2)cn(C)c1=O [Example 22, (S)-4-(4-chlorophenyl)-2-cyclopropyl-5-(1,5-dimethyl-6-oxo-1,6-dihydropyridin-3-yl)-3-methyl-4,5-dihydropyrrolo[3,4-c]pyrazol-6(2H)-one] | –
4 | – | – | > 6.7 µM | > 6.7 µM | – | – | – | Cc1nn(C2CC2)c2c1[C@H](c1ccc(Cl)cc1)N(c1cc(Cl)c(=O)n(C)c1)C2=O [Example 50, (S)-5-(5-chloro-1-methyl-6-oxo-1,6-dihydropyridin-3-yl)-4-(4-chlorophenyl)-1-cyclopropyl-3-methyl-4,5-dihydropyrrolo[3,4-c]pyrazol-6(1H)-one] | –
5 | – | > 37 µM | – | – | > 10000 nM | 2430 nM | 948 nM | COc1ncc(-n2nc3c(c2C(C)C)[C@H](c2ccc(Cl)cc2)N(c2cc(C)c4onc(C)c4c2)C3=O)c(OC)n1 [Example 61, (S)-4-(4-chlorophenyl)-2-(2,4-dimethoxypyrimidin-5-yl)-5-(3,7-dimethylbenzo[d]isoxazol-5-yl)-3-isopropyl-4,5-dihydropyrrolo-[3,4-c]pyrazol-6(2H)-one] | –
6 | > 37 µM | – | > 37 µM | – | > 10000 nM | 3160 nM | 1640 nM | Cc1nn(C2CC2)c2c1[C@H](c1ccc(Cl)cc1)N(c1cc(C)c3nnc(C)n3c1)C2=O [Example 118, (S)-4-(4-chlorophenyl)-1-cyclopropyl-5-(3,8-dimethyl-[1,2,4]triazolo[4,3-a]pyridin-6-yl)-3-methyl-4,5-dihydropyrrolo-[3,4-c]pyrazol-6(1H)-one] | >10000 nM
7 | – | – | – | – | 659 nM | 135 nM | 76.1 nM | Cc1n[nH]c2c1C(c1ccc(Cl)cc1F)N(c1cc(C)c3nnc(C)n3c1)C2=O (stereo not shown) [Example 183, 4-(4-chloro-2-fluorophenyl)-5-(3,8-dimethyl-[1,2,4]triazolo[4,3-a]pyridin-6-yl)-3-methyl-4,5-dihydropyrrolo-[3,4-c]pyrazol-6(2H)-one] | –
8 | – | – | – | – | 394 nM | 131 nM | 59.6 nM | COc1ncccc1-n1nc(C)c2c1C(=O)N(c1cc(C)c3nnc(C)n3c1)C2c1ccc(Cl)cc1F (stereo not shown) [Example 184, 4-(4-chloro-2-fluorophenyl)-5-(3,8-dimethyl-[1,2,4]triazolo[4,3-a]pyridin-6-yl)-1-(2-methoxypyridin-3-yl)-3-methyl-4,5-dihydropyrrolo-[3,4-c]pyrazol-6(1H)-one] | –
9 | – | – | – | – | 136 nM | 36.8 nM | 24.2 nM | CCn1nc(C)c2c1C(=O)N(c1cc(C)c3nnc(C)n3c1)C2c1ccc(Cl)cc1F (stereo not shown) [Example 185, 4-(4-chloro-2-fluorophenyl)-5-(3,8-dimethyl-[1,2,4]triazolo[4,3-a]pyridin-6-yl)-1-ethyl-3-methyl-4,5-dihydropyrrolo-[3,4-c]pyrazol-6(1H)-one] | –
10 | – | – | – | – | 208 nM | 61.5 nM | 44.1 nM | CCn1nc2c(c1C)C(c1ccc(Cl)cc1F)N(c1cc(C)c3nnc(C)n3c1)C2=O (stereo not shown) [Example 186, 4-(4-chloro-2-fluorophenyl)-5-(3,8-dimethyl-[1,2,4]triazolo[4,3-a]pyridin-6-yl)-2-ethyl-3-methyl-4,5-dihydropyrrolo-[3,4-c]pyrazol-6(2H)-one] | –
11 | – | – | – | – | 655 nM | 168 nM | 144 nM | COc1ccccc1-n1nc(C)c2c1C(=O)N(c1cc(C)c3nnc(C)n3c1)C2c1ccc(Cl)cc1F (stereo not shown) [Example 187, 4-(4-chloro-2-fluorophenyl)-5-(3,8-dimethyl-[1,2,4]triazolo[4,3-a]pyridin-6-yl)-1-(2-methoxyphenyl)-3-methyl-4,5-dihydropyrrolo-[3,4-c]pyrazol-6(1H)-one] | –
12 | – | – | – | – | 88.5 nM | 11.3 nM | 14.1 nM | Cc1nn(C(C)C)c2c1[C@@H](c1ccc(Cl)cc1F)N(c1cc(C)c3nnc(C)n3c1)C2=O [Example 189, (S)-4-(4-chloro-2-fluorophenyl)-5-(3,8-dimethyl-[1,2,4]triazolo[4,3-a]pyridin-6-yl)-1-isopropyl-3-methyl-4,5-dihydropyrrolo[3,4-c]pyrazol-6(1H)-one] | –
13 | – | – | – | – | 202 nM | 66.2 nM | 58 nM | COc1ncccc1-n1nc2c(c1C)C(c1ccc(F)cc1F)N(c1cc(C)c3nnc(C)n3c1)C2=O (stereo not shown) [Example 193, 4-(2,4-difluorophenyl)-5-(3,8-dimethyl-[1,2,4]triazolo[4,3-a]pyridin-6-yl)-2-(2-methoxypyridin-3-yl)-3-methyl-4,5-dihydropyrrolo-[3,4-c]pyrazol-6(2H)-one] | –
14 | – | – | – | – | 245 nM | 73.2 nM | 48.6 nM | COc1ncccc1-n1nc2c(c1C)C(c1ccc(Cl)cc1F)N(c1cc(C)c3nnc(C)n3c1)C2=O (stereo not shown) [Example 194, 4-(4-chloro-2-fluorophenyl)-5-(3,8-dimethyl-[1,2,4]triazolo[4,3-a]pyridin-6-yl)-2-(2-methoxypyridin-3-yl)-3-methyl-4,5-dihydropyrrolo-[3,4-c]pyrazol-6(2H)-one] | –
15 | – | – | – | – | 127 nM | 30.3 nM | 23.9 nM | Cc1nn(C2CC2)c2c1C(c1ccc(Cl)cc1)N(c1cc(C)c3nnc(C(F)F)n3n1)C2=O (stereo not shown) [Example 195, 4-(4-chlorophenyl)-1-cyclopropyl-5-(3-(difluoromethyl)-8-methyl-[1,2,4]triazolo[4,3-b]pyridazin-6-yl)-3-methyl-4,5-dihydropyrrolo-[3,4-c]pyrazol-6(1H)-one] | –
16 | – | – | – | – | 921 nM | 204 nM | 144 nM | Cc1[nH]nc2c1C(c1ccc(Cl)cc1F)N(c1cc(C)c(=O)n(C)c1)C2=O (stereo not shown) [Example 196, 4-(4-chloro-2-fluorophenyl)-5-(1,5-dimethyl-6-oxo-1,6-dihydropyridin-3-yl)-3-methyl-4,5-dihydropyrrolo-[3,4-c]pyrazol-6(2H)-one] | –

Source: US20160095843A1, “PYRAZOLOPYRROLIDINE DERIVATIVES AND THEIR USE IN THE TREATMENT OF DISEASE” (NOVARTIS AG, priority 2013, published 2016)
